Laboratory results as given in patent publication US20260199289A1, “USE OF GLYCOGEN METABOLISM INHIBITORS FOR THE TREATMENT OF CANCER” (THE UNIVERSITY OF VERMONT AND STATE AGRICULTURAL COLLEGE, priority 2022, published 2026).
Entries after “also recorded” stand apart in the source; their conditions may differ.

Legend:
[1] = mouse, in vivo
Procedure: Four-week-old athymic female nude mice (outbred homozygous nude Foxn1^nu/Foxn1^nu) were purchased from Jackson Laboratory (Bar Harbor, ME, USA) and were allowed to acclimatize for one week. Mice were given food and water ad libitum. Mice were anesthetized using 3% isoflurane delivered at 1.5 L/min, and tumors were established by subcutaneously injecting 1×10^6 8505C cells with a 26G needle in 100 μL of high concentration Matrigel (Corning Inc.) diluted 1:2 with base RPMI-1640 into each flank of 24 mice. One week later, mice were sorted into four treatment groups to achieve approximately equal body weights between mice. […] Pharmacological agents were dissolved in 100% DMSO and diluted daily in 30% DMSO, 40% PEG300, and 30% PBS and incubated at 55° C. for 10 minutes prior to vortexing to encourage complete solubilization. Tumor dimensions were measured with digital calipers, and the volumes were calculated by the following formula: (Π×a×b^2)/6, where a represents the largest diameter and b is the perpendicular diameter. The body weight of each animal was taken twice a week to measure toxicity. Mice were euthanized with carbon dioxide, and the tumors were harvested, fixed with formalin (Thermo Fisher Scientific), and stored at 4° C. prior to slide sectioning and immunofluorescence analysis.

8505C cells [2] = assay: Glycogen content (colorimetric assay, TEM) in ATC cells; assay type: cell-based, human; conditions: ATC cells (8505C), CP-91,149 50 μM, 24-hour incubation, colorimetry and TEM
Procedure: (§1) Transmission Electron Microscopy of Glycogen Deposits—Cells were seeded in 10 cm dishes and allowed to adhere overnight. […] Cells were then rinsed with PBS and lifted with trypsin for preparation for TEM as described previously. Thwe et al., “Cell-intrinsic Glycogen Metabolism Supports Early Glycolytic Reprogramming Required for Dendritic Cell Immune Responses,” Cell Metabolism 26:558-567.e555 (2017), which is hereby incorporated by reference in its entirety.
PYGB RNA Interference—For validating successful PYGB knockdown, 4.0×10^4 cells were plated in 12 well plates containing 0.2% Lipofectamine™ 3000 Transfection Reagent and the indicated concentration of siRNA targeting PYGB or control siRNA in 1 ml CTM. RNA was extracted 72 hours later for RT-qPCR analysis and protein was extracted 96 hours later for immunoblotting. For measuring the effect of PYGB knockdown on cell viability, 1.0×10^3 cells were seeded in 96 well plates with 0.15% Lipofectamine™ 3000 Transfection Reagent and the indicated concentration of siRNA targeting PYGB or control siRNA in 200 μl CTM for 7 days before conducting the SRB assay. For measuring the effect of PYGB knockdown on glycogen content, 6.5×10^5 cells were seeded in 10 cm dishes with 0.2% Lipofectamine™ 3000 Transfection Reagent and the indicated concentration of siRNA targeting PYGB or control siRNA in 10 ml CTM for 4 days preceding cell lysis for glycogen determination.
(§2) Quantification of Levels of Glycogen, Glucose-1-Phosphate, Glucose-6-Phosphate, Lactate, ATP, Glucose, NADPH, and Glutathione—Briefly, cells were seeded in 10 cm dishes (for measuring glycogen and NADPH), 6 well plates (GIP, G6P, lactate, glucose, and glutathione), or 96 well plates (ATP) and allowed to adhere overnight. CTM was aspirated and cells were rinsed with PBS before application of compounds dissolved in CTM for 24 hours, at which point cells were ~90% confluent. CTM was then aspirated, cells were rinsed with PBS, and lysed according to the respective manufacturer protocol (see Table 4) for metabolite analysis.

Nthy-ori-3-1 cells = assay: Glycogen content (colorimetric assay, TEM) in normal thyroid cells; assay type: cell-based, human; conditions: Nthy-ori-3-1 normal thyroid cells, CP-91,149 50 μM, 24-hour incubation
Procedure: as §1, §2

8505C cells [3] = assay: Cell attachment to fibronectin-coated plates; assay type: cell-based, human; conditions: 24 hours of 50 μM CP treatment
Text: Cells were washed with PBS and lifted with trypsin.

HepG2 cells = conditions: hepatocellular carcinoma; cited from earlier work
8505C cells [4] = assay: Quantification of G1P, G6P, lactate, ATP, glucose, NADPH and glutathione; assay type: cell-based, human; conditions: 50 μM CP-91,149, 24 hours
Procedure: as §2

8505C thyrospheres = assay: ATC stem cell thyrosphere growth; assay type: cell-based, human; conditions: 8505C stem cells, day 3 compared to day 1
Text: Bolf et al., “Thyroid Hormone Receptor Beta Induces a Tumor Suppressive Program in Anaplastic Thyroid Cancer,” Molecular Cancer Research 18(10):1443-1452 (2020), which is hereby incorporated by reference in its entirety. Thyrospheres per well were counted and imaged using a digital camera (Diagnostics Instruments) connected to a Nikon Eclipse TS100 inverted microscope.

CN(C)C(=O)[C@H](O)[C@H](Cc1ccccc1)NC(=O)c1cc2cc(Cl)ccc2[nH]1 [CP-91,149, 5-chloro-N-[(2S,3R)-4-(dimethylamino)-3-hydroxy-4-oxo-1-phenylbutan-2-yl]-1H-indole-2-carboxamide]
toxicity (body weight) [1]: low toxicity
glycogen content (8505C cells [2]): increased glycogen content; also recorded: causes a buildup of glycogen
glycogen content (8505C cells [2]; listed as CP): significantly increased glycogen content
glycogen content (Nthy-ori-3-1 cells): increased glycogen content
glycogen content (Nthy-ori-3-1 cells; listed as CP): significantly increased glycogen content
cell attachment to fibronectin-coated plates (8505C cells [3]): inhibits cell attachment
cell attachment to fibronectin-coated plates (8505C cells [3]; listed as CP): inhibited the ability of 8505C cells to attach to fibronectin-coated plates
ROS levels (HepG2 cells): increased ROS levels
autophagic adaptations (HepG2 cells): triggered autophagic adaptations
intrinsic apoptosis (HepG2 cells): induce intrinsic apoptosis
NADPH level (8505C cells [4]; 8505C cells): decreased NADPH levels; also recorded: decreases the available supply of NADPH
extracellular glucose / glucose uptake from the cell culture media (8505C cells [4]; 8505C cells): causes an increase in glucose uptake from the cell culture media
glucose-1-phosphate (G1P) level (8505C cells [4]; 8505C cells): causes a buildup in glucose-1-phosphate
glucose-6-phosphate (G6P) level (8505C cells [4]; 8505C cells): a reduction in glucose-6-phosphate
lactate production (8505C cells [4]; 8505C cells): enhances
reduced glutathione (GSH) (8505C cells [4]; 8505C cells): decreases the relative amount of reduced glutathione (GSH)
NADPH level (8505C cells [4]; 8505C cells, listed as CP): drastic decrease in NADPH
extracellular glucose / glucose uptake from the cell culture media (8505C cells [4]; 8505C cells, listed as CP): significant reduction in extracellular glucose
glucose-1-phosphate (G1P) level (8505C cells [4]; 8505C cells, listed as CP): a buildup of the glycogen monomer, glucose-1-phosphate (G1P)
glucose-6-phosphate (G6P) level (8505C cells [4]; 8505C cells, listed as CP): a decrease in the glycolytic intermediate, glucose-6-phosphate (G6P)
reduced glutathione (GSH) (8505C cells [4]; 8505C cells, listed as CP): concomitant loss in reduced glutathione (GSH)
ATP levels (8505C cells [4]; ATC cells): decreases the levels of ATP
thyrosphere growth / stem cell response (8505C thyrospheres): inhibits 8505C thyrosphere growth
thyrosphere growth / stem cell response (8505C thyrospheres; listed as CP): concentration-dependent response
